Data set [1] relates to P450 4A11. More on the design: species or system human. The text has this:
To predict the potential effects of FABP1 on P450 4A11 catalysis, we programmed two computational models in KinTek Explorer to reflect those presented in Figure 2 (i.e., free ligand model versus direct transfer model). The models were equipped with the rate constants and/or Kd values estimated for either palmitate or DAUDA (where applicable) and for protein–protein binding, which are summarized in Table 2. As is indicated in Table 2, certain rate constants necessary for the modeling are estimated based on a known Kd value and an individual known rate constant. To predict the kinetic result of the free ligand model, the rate(s) of transfer (k6, k-6) were set to a value of zero, reflecting the predicted inability of the two proteins to interact. The interaction of P450 and FABP1 occurs in the absence of substrate, although whether the P450–FABP1 (EF) complex can accept a substrate (to form EFS) is unknown. The modeling software estimated a 1 µM Kd value for the interaction with the assumption that the complex could not accept a cytosolic substrate. To predict the kinetic result of the direct transfer model, our experimentally estimated rates of transfer were allowed to be fit by the model. Aside from the manipulations with the transfer rate, all remaining rate constants were input as they appear in Table 2.
When provided the experimental conditions for the kinetic assays in Figure 12, the free ligand model predicted that the rate of P450 catalysis decreases rapidly as the concentration of FABP1 approaches the concentration of substrate in the experiment (Fig. 12A, blue line), which is intuitive (given the difference in palmitate binding affinities; Table 1, Table 2 and 2). Provided the same conditions, the direct transfer model predicted a slight attenuation of P450 activity (as the concentration of FABP1 approaches the total concentration of substrate (S)), which yielded an excellent fit to our experimental data when a rate of P450 catalysis of 0.11 s^−1 was used (Fig. 12A, red line). […] In a separate experiment, the free ligand model similarly predicted that P450 activity would not be observed when the concentration of substrate was below the concentration of FABP1 (Fig. 12B, blue line). The direct transfer model predicted a hyperbolic product distribution (for [S] < [FABP1]) and gave a satisfactory fit to the experimental data when the same rates of ES^′→ES described earlier were used, but the rate of P450 catalysis was reduced 20-fold (to 0.005 s^−1) (Fig. 12B, red line).
Data were imported into KinTek Explorer software (version 11.01; KinTek, https://kintekcorp.com/software) ([76]) as Excel txt files and processed using an Apple computer (operating system 11.6.2, Apple). The kinetic modeling of a binding titration of FABP1 with palmitate (Fig. S13) as well as the txt files used for all kinetic modeling are provided in the Supporting Information.

Data set [2] deals with T1, P450 4A11 (Homo sapiens, UniProt Q02928).
T1 sequence (Q02928 5-519): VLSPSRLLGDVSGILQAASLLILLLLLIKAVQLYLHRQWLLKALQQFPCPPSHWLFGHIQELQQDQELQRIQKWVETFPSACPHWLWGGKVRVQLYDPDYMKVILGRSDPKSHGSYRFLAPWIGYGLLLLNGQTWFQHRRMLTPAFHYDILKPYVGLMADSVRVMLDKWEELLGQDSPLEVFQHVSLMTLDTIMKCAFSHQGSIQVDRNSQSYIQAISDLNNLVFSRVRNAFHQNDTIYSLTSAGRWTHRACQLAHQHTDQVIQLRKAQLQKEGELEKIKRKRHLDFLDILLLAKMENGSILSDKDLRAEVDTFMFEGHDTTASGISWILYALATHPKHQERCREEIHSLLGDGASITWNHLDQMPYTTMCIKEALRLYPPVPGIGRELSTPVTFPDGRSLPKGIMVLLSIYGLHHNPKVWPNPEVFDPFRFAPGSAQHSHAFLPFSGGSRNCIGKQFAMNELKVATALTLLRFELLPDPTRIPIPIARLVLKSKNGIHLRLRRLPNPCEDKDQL
Format: binding. The conditions noted are these: for substrate transfer rate from FABP1 to P450 4A11: FABP1, DAUDA, palmitate 0.2 μM each, P450 4A11 2 μM. More on the design: made in house; host or cells: E. coli. As for the experimental part: Set up as a reverse experiment of the fluorescence displacement assay (Fig. 5), this experiment involved mixing equimolar concentrations (0.2 μM) of DAUDA, FABP1, and palmitate to form a solution ( FDS↔FD+S↔FS+D ) with low fluorescence (Fig. 5A). That solution was then rapidly mixed with an excess of P450 4A11 (2 μM), and the gain of fluorescence was monitored (i.e., as substrate was transferred from FABP1 to P450, either as FDS + P450 → FD + P450-S or as FS + P450 + D → P450-S + F + D → FD; Fig. 5A). As expected, we observed a weak but reproducible stimulation of fluorescence in this experiment (n = 6 shots), and the data were fit to single exponential equation yielding a substrate transfer rate (k6) of 4.2 ± 0.9 s^−1 (Fig. 11).
Figure 11 Rate of palmitate transfer (ktransfer) from FABP1 to P450 4A11. A stoichiometric mixture of FABP1, DAUDA, and palmitate (0.2 μM) was mixed with P450 4A11 (2 μM), and the gain of fluorescence (>420 nm) was monitored (i.e., as FDS + E → FD + ES, Fig. 5A). Six traces were averaged and fit to a single exponential equation, yielding a rate of 4.2 ± 0.9 s^−1. […] replicate experiments were averaged to generate the trace. DAUDA, 11-dansylaminoundecanoic acid; FABP1, fatty acid binding protein.
To estimate the rate of transfer of palmitate from FABP1 to P450 4A11, a mixture of palmitate, FABP1, and DAUDA (0.4 μM, each component) was mixed against a solution of P450 4A11 (4 μM). All components were diluted twofold to their final concentrations in the mixing process. The experiment was performed with stopped-flow parameters identical to the experiments of FABP1 with lipids (aforementioned), and data were processed in the same manner, with the exception that a smoothing factor of 0.4 was applied to the data (in Microsoft Excel) prior to curve fitting.

The values below come from PMC11847541, “Liver fatty acid binding protein FABP1 transfers substrates to cytochrome P450 4A11 for catalysis” (The Journal of Biological Chemistry, 2025).

Read-outs that look alike come from different tables or passages of the source.

As for `CCCCCCCCCCCCCCCC(=O)O` [Palmitate (C16), palmitate], in the data set with P450 4A11 [1], the “reduction of rate of P450 catalysis, Fig. 12B vs Fig. 12A model” value stood at 20 fold. In addition, in the data set with P450 4A11 [1] (direct transfer model), the “forward rate of ES′→ES conformational transition” value amounted to 0.086 s⁻¹ and the “reverse rate of ES′→ES conformational transition” value turned out to be 0.013 s⁻¹. Further, the “rate of P450 catalysis used in direct transfer model” value in the data set on P450 4A11 [1] (fit to Fig. 12A (FABP1 varied, palmitate 5 μM)) is 0.11 s⁻¹. Moreover, the “rate of P450 catalysis used in direct transfer model” value in the data set on P450 4A11 [1] (fit to Fig. 12B (palmitate varied, FABP1 5 μM)) came to 0.005 s⁻¹. The “substrate transfer rate from FABP1 to P450 4A11” value at P450 4A11 [2] is 4.2 ± 0.9 s⁻¹.
The Kd is the equilibrium constant for the complex coming apart. A higher Kd goes with lower affinity. As to “FABP1: delipidated recombinant liver fatty acid binding protein with C-terminal hexahistidine tag”, the Kd in the data set with P450 4A11 [1] was 1000 nM. In the data set with P450 4A11 [2], the “rate of transfer to P450 4A11 relative to transfer to phospholipid membranes” value is listed as around 1000 fold and the “substrate transfer rate from FABP1 to P450 4A11” value is around 5 s⁻¹.
